In patent US12459940B2, “Oxazole compound as multi-targeted inhibitor of IRAK4 and BTK” (SHANGHAI FOSUN PHARMACEUTICAL INDUSTRIAL DEVELOPMENT CO., …, priority 2019, dated 2025) one finds IC50 data, which are given here for 3 compounds.

The structures appear in SMILES notation.

One test relates to OCI-LY3 cell line. Kind of test: OCI-LY3 cell proliferation inhibition (CTG). As to conditions: Homo sapiens, incubated for 72 hours. The format is cell-based. Here is the method:
The tumor cell line used in this experiment was provided by Nanjing Cobioer Biotechnology Co., Ltd. See Table 13 below for specific information.
The tumor cell lines OCI-LY3 were used to detect the effect of the compound on inhibiting tumor cell proliferation in vitro. The OCI-LY3 cell line was cultured in the corresponding medium at 37° C. and 5% CO2, and the logarithmic growth phase cells were used in the experimental plating. The cells were collected and centrifuged at 800 rpm for 5 minutes, and the culture medium was re-suspended and spread in a 96-well plate. After incubating overnight in a 37° C., 5% CO2 incubator, the cells with different concentration gradients (10 μL of prepared diluent of the tested compound) were incubated for 72 hours, and the cell culture plates were incubated with CTG reagent at room temperature and away from light for 30 minutes, and then recovered to room temperature. 100 μL/hole of CTG solution was added into the biosafety cabinet away from light, and the plate shaker was shaken and mixed evenly away from light for 2 minutes, and incubated at room temperature away from light for 10 minutes. The luminescence values were read and recorded using the Perkin Elmer Envision 2104 MuLtilabel Reader.
The results of luminescence values measured at each drug concentration were normalized with the luminescence values of the blank control group, and the ratio of this value to the DMSO group was taken as the cell inhibition rate (%). Using GraphPad software, the logarithm of drug concentration (log drug concentration) versus inhibition rate was plotted, and the software automatically fitted and calculated IC50 value and 95% confidence limit value by log (inhibitor) vs. normalized response algorithm of nonlinear regression.
As to `Cc1cc(-c2nc(C(=O)Nc3cn4cc(C(C)(C)O)nc4cc3N3CCCCC3)co2)ccn1` [WX040], the IC50 is 0.283 µM.

Consider `Cc1cc(-c2nc(C(=O)Nc3cn4cc(CCC(C)(C)O)nc4cc3N3CCC(C(C)(C)O)CC3)co2)ccn1` [WX045], for which the IC50 was determined as 0.27 µM.

Another test has as its system OCI-LY10 human B-cell lymphoma cells. Kind of test: OCI-LY10 cell proliferation inhibition (CellTiter-Glo). It counts as cell-based. As to conditions: OCI-Ly10, 72 h, treated for 3 days. The protocol: OCI-LY10 human B-cell lymphoma cells were cultured in a 37° C., 5% CO2 incubator. The composition of medium was IMDM (GIBCO, Cat #12440053); the supplementary compositions were 20% FBS (Hyclone, Cat #SH30084.03); 1% PenStrep (Thermo, Cat #SV30010).
The tumor cell lines OCI-LY10 and TMD8 were used to detect the effect of the compound on inhibiting tumor cell proliferation in vitro. The tumor cell line was cultured in a 37° C., 5% CO2 incubator according to the culture conditions shown, and passaged regularly, then the cells in the logarithmic growth phase were taken, counted, and spread in a 96-well plate (the cells in each well were adjusted to an appropriate concentration, a total of […] per well was added). After incubating overnight in a 37° C., 5% CO2 incubator, drugs with different concentration gradients (10 μL of drug solution was added) were added and treated for 3 days, then 50 μL of CellTiter-Glo working solution was added to each well, and the cell plate was wrapped with aluminum foil to avoid light. The culture plate was shaken on an orbital shaker for 2 minutes to induce cell lysis, and placed at room temperature for 10 minutes to stabilize the luminescence signal, then the luminescence signal was detected on the 2104 EnVision plate reader.
The Inhibition rate (IR) of the tested compound was calculated using the following formula: IR (%)=(1−(RLU compound−RLU blank control)/(RLU solvent control−RLU blank control))*100%.
The inhibition rates of different concentrations of the compounds were calculated in Excel, and then the inhibition curves were made by GraphPad Prism software and the related parameters were calculated, including the minimum inhibition rate, the maximum inhibition rate and IC50.
In general terms: ATP-based viability assays read luminescence as a measure of living cells.
Consider `Cc1cc(-c2nc(C(=O)Nc3cn4cc(CCC(C)(C)O)nc4cc3-c3ccccc3F)co2)ccn1` [WX024], for which the IC50 turned out to be 0.208 µM.

Turning to `Cc1cc(-c2nc(C(=O)Nc3cn4cc(C(C)(C)O)nc4cc3N3CCCCC3)co2)ccn1` [WX040], the IC50 stood at 0.087 µM.

`Cc1cc(-c2nc(C(=O)Nc3cn4cc(CCC(C)(C)O)nc4cc3N3CCC(C(C)(C)O)CC3)co2)ccn1` [WX045]: the IC50 turned out to be 0.077 µM.

The target of a further test is T1, human BTK (Homo sapiens, UniProt Q06187).
T1 construct: purchased Reaction Biology Corp
T1 sequence (Q06187 whole entry): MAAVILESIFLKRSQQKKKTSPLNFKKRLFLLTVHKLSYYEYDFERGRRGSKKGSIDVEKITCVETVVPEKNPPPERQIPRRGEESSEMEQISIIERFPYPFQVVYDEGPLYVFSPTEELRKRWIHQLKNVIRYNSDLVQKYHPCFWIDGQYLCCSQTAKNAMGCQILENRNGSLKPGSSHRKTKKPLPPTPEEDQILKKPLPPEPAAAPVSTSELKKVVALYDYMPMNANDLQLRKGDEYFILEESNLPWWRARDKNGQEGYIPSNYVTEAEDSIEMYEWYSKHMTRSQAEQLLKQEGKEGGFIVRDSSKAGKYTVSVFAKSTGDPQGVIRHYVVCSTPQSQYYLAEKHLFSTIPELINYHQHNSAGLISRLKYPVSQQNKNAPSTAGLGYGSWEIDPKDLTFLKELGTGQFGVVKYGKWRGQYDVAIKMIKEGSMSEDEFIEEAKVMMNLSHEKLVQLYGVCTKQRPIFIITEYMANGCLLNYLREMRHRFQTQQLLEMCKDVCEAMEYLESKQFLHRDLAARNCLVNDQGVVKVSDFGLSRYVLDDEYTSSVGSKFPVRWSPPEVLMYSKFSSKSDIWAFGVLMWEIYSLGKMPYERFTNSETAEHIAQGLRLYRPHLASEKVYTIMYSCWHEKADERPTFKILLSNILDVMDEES
Put plainly: In vitro BTK kinase activity, 33P isotope-labeled kinase activity assay (Reaction Biology Corp). To be noted: 33P-ATP, 2 hours at room temperature. It counts as biochemical. The protocol:
The IC50 values were determined using ^33P isotope-labeled kinase activity assay (Reaction Biology Corp) to evaluate the inhibitory ability of the tested compounds on human BTK.
(§1) Buffer conditions: 20 mM Hepes (pH 7.5), 10 mM MgCl2, 1 mM EGTA, 0.02% Brij35, 0.02 mg/mL BSA, 0.1 mM Na3VO4, 2 mM DTT, 1% DMSO.
Test procedure: At room temperature, the tested compound was dissolved in DMSO to prepare a 10 mM solution for later use. The substrate was dissolved in a newly prepared buffer solution, and the tested BTK kinase was added thereto and mixed evenly. The compound dissolved in DMSO was added to the kinase reaction mixture through Echo 550 (Acoustic technology; Nanoliter range). After incubation for 20 minutes at room temperature, ^33P-ATP was added to initiate the reaction. The reaction was carried out at room temperature for 2 hours, and the radioactivity of the reaction liquid point was detected by filtration-binding method with P81 ion exchange filter paper. The kinase activity data were expressed by comparing the kinase activity of the group containing the tested compound with the kinase activity of the blank group (only containing DMSO), and the IC50 value was obtained by curve fitting by Prism4 software (GraphPad), the experimental results are shown in Table 10.
Consider `Cc1cc(-c2nc(C(=O)Nc3cn4cc(CCC(C)(C)O)nc4cc3-c3ccccc3F)co2)ccn1` [WX024], for which the IC50 was found to be 0.0305 µM.

`Cc1cc(-c2nc(C(=O)Nc3cn4cc(C(C)(C)O)nc4cc3N3CCCCC3)co2)ccn1` [WX040] gave an IC50 of 0.0033 µM.

Consider `Cc1cc(-c2nc(C(=O)Nc3cn4cc(CCC(C)(C)O)nc4cc3N3CCC(C(C)(C)O)CC3)co2)ccn1` [WX045], for which the IC50 is 0.0286 µM.

For another test, the system named is TNF-α production in THP-1 cells. Put plainly: THP-1 cytological TNFa ELISA assay (LPS-stimulated). The format is cell-based. To be noted: Homo sapiens, TNF-α in culture supernatant, 150 ng/mL LPS, 18 hours. Here is the method:
THP-1 human acute […] leukemia cells were purchased from ATCC (Cat #TIB-202) and cultured at 37° C. in 5% CO2 incubator. The composition of medium was RPMI1640 (Gibco, Cat #22400-105), and the supplementary compositions were 10% FBS (Gibco, Cat #10091148); 1% PenStrep (Gibco, Cat #15140); 0.05 mM 2-Mercaptoethanol (Sigma, Cat #M6250).
TNF-α Elisa kit was used to detect the content of TNF-α in cell culture supernatant samples. TNF-α was produced by stimulating THP-1 cells with 150 ng/mL LPS (Sigma, Cat #L6529).
THP-1 cells cultured normally at logarithmic growth stage were seeded in a 96-well plate (Corning #3599) at a certain concentration (1*10^5/100 μL) and then put into a cell incubator for incubation. After two hours, 16.7 μL of different concentrations of the compound to be tested (8*final concentration) were added and incubated in an incubator. After one hour, 16.7 μL of 1200 ng/mL LPS was added and incubated in an incubator. After 18 hours, the culture supernatant samples were collected by centrifugation, and the content of TNF-α could be detected by TNF-α Elisa kit. Finally, OD signals (OD450-OD570) were read on envision board reader.
The OD450-OD570 signal value was converted into a percentage inhibition rate. Inhibition rate %=(ZPE−sample)/(ZPE−HPE)*100.
“HPE” refers to the OD450-OD570 signal value of the control well without LPS stimulated cells, and “ZPE” refers to the OD450-OD570 signal value of the control well with LPS stimulated cells. The IC50 value of the compound was calculated by XLFit in the excel add-in. Y=Bottom+(Top−Bottom)/(1+(IC50/X)^HillSlope). Equation: […]
For `Cc1cc(-c2nc(C(=O)Nc3cn4cc(CCC(C)(C)O)nc4cc3-c3ccccc3F)co2)ccn1` [WX024], the IC50 was 0.013 µM.

Compound `Cc1cc(-c2nc(C(=O)Nc3cn4cc(C(C)(C)O)nc4cc3N3CCCCC3)co2)ccn1` [WX040] came in with an IC50 of 0.038 µM.

The next test has as its target T2, human IRAK4 (Homo sapiens, UniProt Q9NWZ3).
T2 construct: purchased Reaction Biology Corp
T2 sequence (Q9NWZ3 1-460): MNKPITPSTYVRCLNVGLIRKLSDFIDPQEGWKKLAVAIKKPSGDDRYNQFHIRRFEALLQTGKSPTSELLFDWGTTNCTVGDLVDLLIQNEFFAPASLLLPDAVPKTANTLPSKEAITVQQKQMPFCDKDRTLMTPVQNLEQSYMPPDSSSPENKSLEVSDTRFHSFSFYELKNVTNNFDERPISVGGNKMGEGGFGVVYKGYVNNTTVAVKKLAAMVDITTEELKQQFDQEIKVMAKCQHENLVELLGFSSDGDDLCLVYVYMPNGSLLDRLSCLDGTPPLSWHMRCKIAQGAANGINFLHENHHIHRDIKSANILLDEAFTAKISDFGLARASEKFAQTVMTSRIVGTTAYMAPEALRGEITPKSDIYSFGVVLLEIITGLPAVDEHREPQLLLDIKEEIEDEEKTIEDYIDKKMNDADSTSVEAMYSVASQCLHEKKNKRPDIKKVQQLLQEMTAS
Put plainly: In vitro IRAK4 kinase activity, 33P isotope-labeled kinase activity assay (Reaction Biology Corp). It counts as biochemical.
Details: not given
The protocol: The IC50 values were determined using ^33P isotope-labeled kinase activity assay (Reaction Biology Corp) to evaluate the inhibitory ability of the tested compounds on human IRAK4.
as §1
Test procedure: At room temperature, the tested compound was dissolved in DMSO to prepare a 10 mM solution for later use. The substrate was dissolved in a newly prepared buffer solution, and the tested IRAK4 kinase was added thereto and mixed evenly. The DMSO solution dissolved with the tested compound was added to the above reaction mixture mixed evenly using acoustic technique (Echo 550). After incubation for 15 minutes, ^33P-ATP was added to initiate the reaction.
In turn, `Cc1cc(-c2nc(C(=O)Nc3cn4cc(CCC(C)(C)O)nc4cc3-c3ccccc3F)co2)ccn1` [WX024] gave an IC50 of 0.0007 µM.

As to `Cc1cc(-c2nc(C(=O)Nc3cn4cc(C(C)(C)O)nc4cc3N3CCCCC3)co2)ccn1` [WX040], the IC50 stood at 0.0012 µM.

The same test, now with this note: 33P-ATP, 120 minutes at room temperature; read-out: IRAK4/IC50.
In the case of `Cc1cc(-c2nc(C(=O)Nc3cn4cc(CCC(C)(C)O)nc4cc3N3CCC(C(C)(C)O)CC3)co2)ccn1` [WX045], the IC50 turned out to be 0.0034 µM.
